One assay has as its target T1, Falcipain-2 (Plasmodium falciparum, UniProt Q8I6U4).
T1 sequence (Q8I6U4 244-484): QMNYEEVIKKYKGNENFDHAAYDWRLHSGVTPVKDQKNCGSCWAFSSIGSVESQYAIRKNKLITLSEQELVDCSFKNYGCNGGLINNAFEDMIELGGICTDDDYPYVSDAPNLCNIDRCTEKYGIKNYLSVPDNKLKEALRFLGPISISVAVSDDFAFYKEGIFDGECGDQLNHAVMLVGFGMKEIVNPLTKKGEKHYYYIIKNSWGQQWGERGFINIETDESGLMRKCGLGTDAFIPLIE
Description: falcipain-2 enzymatic assay (fluorogenic substrate H-D-VLR-AFC, endpoint). Type of assay: biochemical. The following applies: parasitic recombinant enzyme, pH 5.5, quenched after 60 minutes. The protocol:
(§1) 1) Determination of Falcipain-2, Falcipain-3, Vivapain-2, and Cathepsin S Proteolytic Catalytic Activity
(§2) Assays for Falcipain-2, Falcipain-3, and Vivapain-2 are carried out with parasitic recombinant enzymes. Cathepsins S is carried out with human recombinant enzymes. Standard assay conditions for the determination of kinetic constants used a fluorogenic peptide substrate, typically H-D-VLR-AFC (Falcipain-2, Falcipain-3, Vivapain-2) or KQKLR-AMC (Cathepsin S) and are determined in 100 mM sodium acetate, pH 5.5, containing 10 mM DTT and 0.5 mM CHAPS (Falcipain-2, Falcipain-3, Vivapain-2), or 50 mM MES, pH 6.5, containing 0.5 mM CHAPS, 10 mM L-CYS, 5 mM EDTA (Cathepsin S). Stock substrate solutions are prepared at 20 mM in DMSO. The activity assays contained 30 uM substrate (Falcipain-2, Falcipain-3, Vivapain-2), and 30 uM substrate (Cathepsin S). All assays contained 1% DMSO. […] All assays are conducted at ambient temperature as end point assays being quenched after 60 minutes with the exception of Cathepsin S at 90 minutes, with 16.6 uM E-64 in 1% DMSO. Product formation (AFC or AMC) is determined from fluorescence (excitation at 405 nm; emission at 530 nm, AFC, or excitation at 360 nm; emission at 460 nm, AMC) monitored with a LJL Aquest (Molecular Devices) fluorescent plate reader. In the case of kinetic reads (used in mechanism of action studies), the reaction is not quenched but is read in the plate reader every 3 minutes for approximately 90 minutes. In addition, the mechanism of action studies for Falcipain-2 utilize Z-LR-AMC as the substrate. Product formation is determined from the fluorescence of AMC, measured with a LJL Acquest (Molecular Devices) fluorescent plate reader (excitation at 360 nm; emission at 460 nm).
(§3) Potential inhibitors are evaluated using the quenched read (endpoint) method. Assays are carried out in the presence of variable concentrations of test compound. Reactions are initiated by addition of enzyme and substrate to wells containing inhibitor stamped in 100% DMSO. For endpoint assays, the reaction is quenched with the addition of E64. Dose response data is fit to an IC50 curve with preset fitting tools according to equation 1:
(§4) y=a+(b−a)/(1+(10^X/10^C)^d) (1)
(§5) where y is the response at a particular inhibitor concentration x, a is the minimum response value, b is the maximum response value, c is the IC50, and d is the slope of the IC50 curve. Assuming the compound is a competitive inhibitor, the apparent KI can be calculated from IC50, as shown in equation 2: […]

The target of the next assay is T2, Falcipain-3 (Plasmodium falciparum, UniProt Q8IIL0).
T2 sequence (Q8IIL0 243-492): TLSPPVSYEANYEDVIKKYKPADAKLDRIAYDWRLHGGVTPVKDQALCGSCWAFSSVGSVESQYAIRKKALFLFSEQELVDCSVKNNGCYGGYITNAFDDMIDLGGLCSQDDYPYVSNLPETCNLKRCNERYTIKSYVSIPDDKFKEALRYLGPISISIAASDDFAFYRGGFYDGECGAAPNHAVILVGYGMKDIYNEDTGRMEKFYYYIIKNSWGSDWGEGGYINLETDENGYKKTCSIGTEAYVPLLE
As to the kind of experiment: falcipain-3 enzymatic assay (fluorogenic substrate H-D-VLR-AFC, endpoint). Type of assay: biochemical. Conditions: parasitic recombinant enzyme, pH 5.5, quenched after 60 minutes. As for the experimental part: as §1, §2, §3, §4, §5

The subject of assay [1] is Plasmodium falciparum parasite. Description: whole cell activity against the Plasmodium falciparum parasite. Type of assay: cell-based. From the text: Equation 7 describes the apparent KI for competitive compounds and was substituted into equations 5 and 6 to generate the relevant binding constants from the fitting routine. In addition, the initial and final velocities were fit to equation 3 to further define the binding mechanism and potency. A complete discussion of this kinetic treatment has been fully described (Morrison et al., Adv. Enzymol. Relat. Areas Mol. Biol., 1988, 61, 201). 2) Determination of Whole Cell Activity Against the Plasmodium falciparum Parasite Compounds can be evaluated for whole cell activity against the Plasmodium falciparum parasite according to the procedure described in Sijwali S, and Rosenthal P. J., (2004) Proceedings of the National Academy of Sciences of the United States of America (PNAS) 101(13), 4384-4389 (see in particular “Measurement of Parasite Growth rates and Inhibitor Sensitivity” on page 4385); IC50 values can be calculated as described in Singh A. and Rosenthal P. J., (2001) Antimicrobial Agents and Chemotherapy 45(3), 949-951 (see in particular page 950, first column); synchronised parasites can be prepared as described in Divo A. A. et al., (1985) Protozool. 32, 59-64.

SMILES strings stand for the structures. Where a name gives a salt, the structure may show the parent alone.

By IC50 is commonly meant the concentration that inhibits the measured activity by half.

In the case of `CN1CCN(C2CCN(Cc3ccc(C(=O)NN(c4nc(C#N)nc5c4ncn5C)C4CCCCC4)cc3)CC2)CC1` [Example 8, N′N′-(2-cyano-9-methyl-9H-purin-6-yl)-N′-cyclohexyl-4-({[4-(4-methyl-1-piperazinyl)-1-piperidinyl]methyl}benzohydrazide trifluoroacetate], the figures for the IC50 (at Falcipain-2; on Falcipain-3; in assay [1]) were 0.001 to 0.0025 µM, 0.015 to 0.15 µM and 0.0025 to 0.015 µM, respectively.
As to `CN(C)CCn1cnc2c(N(NC(=O)c3cccc(N4CCN(C)CC4)c3)C3CCCC3)nc(C#N)nc21` [Example 41, N′-{2-cyano-9-[2-(dimethylamino)ethyl]-9H-purin-6-yl}-N′-cyclopentyl-3-(4-methyl-1-piperazinyl)benzohydrazide bis(trifluoroacetate)], the figures for the half-maximal inhibitory concentration (IC50) (on Falcipain-2; at Falcipain-3; in assay [1]) were 0.001 to 0.0025 µM, 0.015 to 0.15 µM and 0.015 to 0.15 µM, respectively.
On to `CN1CCN(Cc2ccc(C(=O)NN(c3nc(C#N)nc4[nH]cnc34)C3CCCCC3)cc2)CC1` [Example 30, N′-(2-cyano-1H-purin-6-yl)-N′-cyclohexyl-4-[(4-methyl-1-piperazinyl)methyl]benzohydrazide trifluoroacetate], for which the IC50 at Falcipain-2 is 0.0025 to 0.015 µM; at Falcipain-3, 0.015 to 0.15 µM; in assay [1], 0.4 to 1 µM.
With `CN(C)CCCn1cnc2c(N(NC(=O)OC(C)(C)C)C3CCOCC3)nc(C#N)nc21` [Example 19, 1,1-dimethylethyl 2-{2-cyano-9-[3-(dimethylamino)propyl]-9H-purin-6-yl}-2-(tetrahydro-2H-pyran-4-yl)hydrazinecarboxylate trifluoroacetate], the IC50 on Falcipain-2 lay within 0.0025 to 0.015 µM; on Falcipain-3, 0.015 to 0.15 µM; in assay [1], 0.015 to 0.15 µM.
On to `CN1CCC(CN2CCN(Cc3ccc(C(=O)NN(c4nc(C#N)nc5c4ncn5C)C4CCCCC4)cc3)CC2)CC1` [Example 9, N′-(2-cyano-9-methyl-9H-purin-6-yl)-N′-cyclohexyl-4-({4-[(1-methyl-4-piperidinyl)methyl]-1-piperazinyl}methyl)-benzohydrazide trifluoroacetate], for which the IC50 was in the range of 0.0025 to 0.015 µM on Falcipain-2, 0.015 to 0.15 µM on Falcipain-3 and 0.0025 to 0.015 µM in assay [1].
Turning to `CN1CCN(C(=O)C2CCN(Cc3ccc(C(=O)NN(c4nc(C#N)nc5c4ncn5C)C4CCCCC4)cc3)CC2)CC1` [Example 10, N′-(2-cyano-9-methyl-9H-purin-6-yl)-N′-cyclohexyl-4-({4-[(4-methyl-1-piperazinyl)carbonyl]-1-piperidinyl}methyl)benzohydrazide trifluoroacetate], the IC50 on Falcipain-2 lay in the range of 0.0025 to 0.015 µM; at Falcipain-3, 0.015 to 0.15 µM; in assay [1], 0.0025 to 0.015 µM.
`CN1CCN(Cc2ccc(-c3cccc(C(=O)NN(c4nc(C#N)nc5c4ncn5C)C4CCCC4)n3)cc2)CC1` [Example 28, N′-(2-cyano-9-methyl-9H-purin-6-yl)-N′-cyclopentyl-6-{4-[(4-methyl-1-piperazinyl)methyl]phenyl}-2-pyridinecarbohydrazide trifluoroacetate]: the figures for the IC50 (at Falcipain-2; on Falcipain-3; in assay [1]) were 0.0025 to 0.015 µM, 0.015 to 0.15 µM and 0.015 to 0.15 µM, respectively.
Consider `CN1CCN(Cc2ccc(-c3cncc(C(=O)NN(c4nc(C#N)nc5c4ncn5C)C4CCCC4)c3)cc2)CC1` [Example 27, N′-(2-Cyano-9-methyl-9H-purin-6-yl)-N′-cyclopentyl-5-{4-[(4-methyl-1-piperazinyl)methyl]phenyl}-3-pyridinecarbohydrazide trifluoroacetate], for which the IC50 on Falcipain-2 is no more than 0.001 µM; on Falcipain-3, 0.015 to 0.15 µM; in assay [1], 0.015 to 0.15 µM.
On to `CN(C)C1CCN(C(=O)n2cnc3c(N(NC(=O)OC(C)(C)C)C4CCCC4)nc(C#N)nc32)CC1` [Example 48, 1,1-dimethylethyl 2-(2-cyano-9-{[4-(dimethylamino)-1-piperidinyl]carbonyl}-9H-purin-6-yl)-2-cyclopentylhydrazinecarboxylate trifluoroacetate], for which the IC50 on Falcipain-2 was 0.001 to 0.0025 µM; at Falcipain-3 it was 0.015 to 0.15 µM; in assay [1], 0.15 to 0.25 µM.

(Values after patent US20100105652A1, “PURINES AS CYSTEINE PROTEASE INHIBITORS” (Glaxo Group Limited, priority 2007, published 2010).)
